How the values were obtained:
Type in all cases: biochemical
plasma [1] = experiment: PT clotting time, RPR spiked in plasma
Method: (§1) • 2. Follow the reaction kinetically for 5 min. • C) Calculation: Measure the initial velocity, however, ignore the lag phase. In general measure the initial rate of the linear portion of the time course. Use initial rates of clinical samples at different time points and then compared to the pre-dosing control to calculate % inhibition. Various concentrations of the compound RPR spiked in plasma were assayed for PT, APTT and PVVT prolongation. […] RVV-X induced clotting time (RVVT) assay could be conveniently used for monitoring the effect of RPR on patient's endogenous plasma FXa.

plasma [2] = experiment: APTT clotting time, RPR spiked in plasma
Method: as §1

endogenous plasma FXa = molecular target: T1, endogenous plasma FXa (Homo sapiens, UniProt P00742); experiment: Russell's viper venom-induced clotting time (RVVT), RPR spiked in plasma
T1 construct: monitoring the effect of RPR on patient's endogenous plasma FXa; from tissue
Method: Dose-dependent clotting time prolongation curve from the compound methyl-3-(4′-N-oxopyridylphenoyl)-3-methyl-2-(m-amidinobenzyl)-propionate (hereinafter “RPR”) or the trifluoroacetate salt of RPR: • 1. Add 0.1 ml FXa buffer, 0.1 ml serial dilution of RPR, 0.1 ml normal pooled or patients plasma to the cuvette then 0.1 ml of RVV-Ca (MLA-800 dotter add this reagent automatically). • 2. Measure clotting time. • 3. Construct the dose-dependent clotting time prolongation curve. • 4. Calculate concentration for 2×RVVT
as §1

T1 sequence (P00742 235-488 limits assumed): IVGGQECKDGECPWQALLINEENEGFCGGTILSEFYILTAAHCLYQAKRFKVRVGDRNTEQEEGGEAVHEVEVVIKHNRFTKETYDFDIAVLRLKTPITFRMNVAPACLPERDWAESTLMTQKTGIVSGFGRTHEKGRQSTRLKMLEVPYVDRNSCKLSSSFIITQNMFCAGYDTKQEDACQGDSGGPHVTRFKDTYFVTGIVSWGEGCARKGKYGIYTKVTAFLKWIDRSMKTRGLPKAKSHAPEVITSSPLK
T1 sequence (P00742 41-179 partner limits assumed): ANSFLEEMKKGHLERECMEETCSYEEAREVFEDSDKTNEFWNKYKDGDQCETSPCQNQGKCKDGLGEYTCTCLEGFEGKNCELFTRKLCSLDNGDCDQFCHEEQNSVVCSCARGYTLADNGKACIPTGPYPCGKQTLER

COC(=O)C(Cc1cccc(C(=N)N)c1)C(C)C(=O)c1ccc(-c2cc[n+]([O-])cc2)cc1 (stereo not drawn) [RPR, methyl-3-(4′-N-oxopyridylphenoyl)-3-methyl-2-(m-amidinobenzyl)-propionate]
fold-change of PT (plasma [1]; RPR 50 μg/ml spiked in plasma): 1.08 fold
fold-change of PT (plasma [1]; RPR 166 μg/ml spiked in plasma): 1.16 fold
fold-change of PT (plasma [1]; RPR 322 μg/ml spiked in plasma): 1.25 fold
fold-change of APTT (plasma [2]; RPR 50 μg/ml spiked in plasma): 1.08 fold
fold-change of APTT (plasma [2]; RPR 166 μg/ml spiked in plasma): 1.41 fold
fold-change of APTT (plasma [2]; RPR 322 μg/ml spiked in plasma): 1.5 fold
fold-change of RVVT (endogenous plasma FXa; RPR 50 μg/ml spiked in plasma): 1.33 fold
fold-change of RVVT (endogenous plasma FXa; RPR 166 μg/ml spiked in plasma): 2.66 fold
fold-change of RVVT (endogenous plasma FXa; RPR 322 μg/ml spiked in plasma): 4.41 fold
